According to ChEMBL document CHEMBL1201862, “PubChem BioAssay data set” (2004):
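96-well plates; 48 h exposure; 5 concentrations. Endpoints by linear interpolation between flanking doses. Not reached: highest tested concentration assigned. GI50: concentration for 50% inhibition of growth.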 Activity calls are given as the source filed them. Rule as the data show it: active = GI50 up to about 1.1 µM and inactive = higher.

How the values were obtained:
Assay in all cases: inhibition of tumour cell growth, NCI panel, 48 h
[1] = system: NCI-H460
[2] = system: OVCAR-8
[3] = system: NCI-H23
[4] = system: LXFL 529
[5] = system: K562
[6] = system: SR
[7] = system: SK-MEL-2
[8] = system: DMS-114
[9] = system: CCRF-CEM
[10] = system: KM12
[11] = system: HOP-62
[12] = system: 786-0
[13] = system: SK-MEL-5
[14] = system: HT-29
[15] = system: SF-539
[16] = system: HOP-92
[17] = system: M14
[18] = system: DMS-273
[19] = system: LOX IMVI
[20] = system: OVCAR-4
[21] = system: HL-60
[22] = system: RPMI-8226
[23] = system: MOLT-4
[24] = system: SW-620
[25] = system: HCT-116
[26] = system: SN12C
[27] = system: OVCAR-5
[28] = system: COLO 205
[29] = system: RXF 393
[30] = system: A549
[31] = system: SF-295
[32] = system: SF-268
[33] = system: UO-31
[34] = system: HOP-18
[35] = system: SK-OV-3
[36] = system: KM-20L2
[37] = system: EKVX
[38] = system: DLD-1
[39] = system: SNB-19
[40] = system: IGROV-1
[41] = system: SNB-78
[42] = system: HCT-15
[43] = system: SK-MEL-28
[44] = system: ACHN
[45] = system: UACC-257
[46] = system: M19-MEL
[47] = system: UACC-62
[48] = system: XF498
[49] = system: U-251
[50] = system: OVCAR-3
[51] = system: NCI-H226
[52] = system: NCI-H522
[53] = system: A498
[54] = system: HCC 2998
[55] = system: TK-10
[56] = system: CAKI-1
[57] = system: Malme-3M
[58] = system: SNB-75

CS(=O)(=O)c1nc(N)nc2nc[nH]c12
GI50 [1]: > 100 µM (inactive)
GI50 [2]: > 100 µM (inactive)
GI50 [3]: > 100 µM (inactive)
GI50 [4]: > 100 µM (inactive)
GI50 [5]: > 100 µM (inactive)
GI50 [6]: > 100 µM (inactive)
GI50 [7]: > 100 µM (inactive)
GI50 [8]: > 100 µM (inactive)
GI50 [9]: > 100 µM (inactive)
GI50 [10]: > 100 µM (inactive)
GI50 [11]: > 100 µM (inactive)
GI50 [12]: > 100 µM (inactive)
GI50 [13]: > 100 µM (inactive)
GI50 [14]: > 100 µM (inactive)
GI50 [15]: > 100 µM (inactive)
GI50 [16]: > 100 µM (inactive)
GI50 [17]: > 100 µM (inactive)
GI50 [18]: > 100 µM (inactive)
GI50 [19]: > 100 µM (inactive)
GI50 [20]: > 100 µM (inactive)
GI50 [21]: > 100 µM (inactive)
GI50 [22]: > 100 µM (inactive)
GI50 [23]: > 100 µM (inactive)
GI50 [24]: > 100 µM (inactive)
GI50 [25]: > 100 µM (inactive)
GI50 [26]: > 100 µM (inactive)
GI50 [27]: > 100 µM (inactive)
GI50 [28]: > 100 µM (inactive)
GI50 [29]: > 100 µM (inactive)
GI50 [30]: > 100 µM (inactive)
GI50 [31]: > 100 µM (inactive)
GI50 [32]: > 100 µM (inactive)
GI50 [33]: > 100 µM (inactive)
GI50 [34]: > 100 µM (inactive)
GI50 [35]: > 100 µM (inactive)
GI50 [36]: > 100 µM (inactive)
GI50 [37]: > 100 µM (inactive)
GI50 [38]: > 100 µM (inactive)
GI50 [39]: > 100 µM (inactive)
GI50 [40]: > 100 µM (inactive)
GI50 [41]: > 100 µM (inactive)
GI50 [42]: > 100 µM
GI50 [43]: > 100 µM (inactive)
GI50 [44]: > 100 µM (inactive)
GI50 [45]: > 100 µM (inactive)
GI50 [46]: > 100 µM (inactive)
GI50 [47]: > 100 µM (inactive)
GI50 [48]: > 100 µM (inactive)
GI50 [49]: > 100 µM (inactive)
GI50 [50]: > 100 µM (inactive)
GI50 [51]: > 100 µM (inactive)
GI50 [52]: 74.8 µM (inactive)
GI50 [53]: > 100 µM (inactive)
GI50 [54]: > 100 µM (inactive)
GI50 [55]: > 100 µM (inactive)
GI50 [56]: > 100 µM (inactive)

OCCCCCNc1ccnc2cc(Cl)ccc12
GI50 [1]: 69.3 µM (inactive)
GI50 [2]: 64.1 µM (inactive)
GI50 [3]: > 100 µM (inactive)
GI50 [4]: > 100 µM (inactive)
GI50 [5]: 21.9 µM (inactive)
GI50 [6]: 19.5 µM (inactive)
GI50 [7]: > 100 µM (inactive)
GI50 [8]: 36.7 µM (inactive)
GI50 [9]: > 100 µM (inactive)
GI50 [10]: > 100 µM (inactive)
GI50 [11]: > 100 µM (inactive)
GI50 [12]: > 100 µM (inactive)
GI50 [13]: 53.5 µM (inactive)
GI50 [14]: 29.2 µM (inactive)
GI50 [15]: > 100 µM (inactive)
GI50 [16]: > 100 µM (inactive)
GI50 [17]: > 100 µM (inactive)
GI50 [18]: > 100 µM (inactive)
GI50 [19]: > 10 µM (inactive)
GI50 [20]: > 100 µM (inactive)
GI50 [21]: 22 µM (inactive)
GI50 [22]: 31.3 µM (inactive)
GI50 [23]: 24.6 µM (inactive)
GI50 [24]: > 100 µM (inactive)
GI50 [57]: > 100 µM (inactive)
GI50 [25]: 33.7 µM (inactive)
GI50 [26]: > 100 µM (inactive)
GI50 [27]: 83.2 µM (inactive)
GI50 [28]: 33.7 µM (inactive)
GI50 [29]: > 100 µM (inactive)
GI50 [30]: > 100 µM (inactive)
GI50 [31]: 47.3 µM (inactive)
GI50 [32]: > 100 µM (inactive)
GI50 [33]: 24.2 µM (inactive)
GI50 [34]: > 100 µM (inactive)
GI50 [35]: > 100 µM (inactive)
GI50 [58]: > 100 µM (inactive)
GI50 [36]: > 100 µM (inactive)
GI50 [37]: 86.3 µM (inactive)
GI50 [38]: > 100 µM (inactive)
GI50 [39]: > 100 µM (inactive)
GI50 [40]: > 100 µM (inactive)
GI50 [41]: > 100 µM (inactive)
GI50 [42]: > 100 µM
GI50 [43]: > 100 µM (inactive)
GI50 [44]: > 100 µM (inactive)
GI50 [45]: > 100 µM (inactive)
GI50 [46]: > 100 µM (inactive)
GI50 [47]: > 100 µM (inactive)
GI50 [48]: > 100 µM (inactive)
GI50 [49]: > 100 µM (inactive)
GI50 [50]: 65.5 µM (inactive)
GI50 [51]: 74.5 µM (inactive)
GI50 [52]: 87.5 µM (inactive)
GI50 [53]: > 100 µM (inactive)
GI50 [54]: > 100 µM (inactive)
GI50 [56]: > 100 µM (inactive)

Cc1ccccc1/N=N/c1c(-c2ccccc2)nn(C(=O)CC(=O)Nc2cccc(Cl)c2)c1-c1ccccc1
GI50 [1]: 19.6 µM (inactive)
GI50 [2]: 21.3 µM (inactive)
GI50 [3]: 20.1 µM (inactive)
GI50 [4]: 21.6 µM (inactive)
GI50 [5]: 16.8 µM (inactive)
GI50 [6]: 9.1 µM (inactive)
GI50 [7]: 12.7 µM (inactive)
GI50 [8]: 14.9 µM (inactive)
GI50 [9]: 15.8 µM (inactive)
GI50 [11]: > 31.6 µM (inactive)
GI50 [12]: 18.5 µM (inactive)
GI50 [13]: 15.8 µM (inactive)
GI50 [14]: 15.3 µM (inactive)
GI50 [15]: 24.2 µM (inactive)
GI50 [16]: 26.3 µM (inactive)
GI50 [17]: 22.1 µM (inactive)
GI50 [18]: 20 µM (inactive)
GI50 [19]: 15.3 µM (inactive)
GI50 [20]: 22.6 µM (inactive)
GI50 [21]: 17.3 µM (inactive)
GI50 [22]: 12.1 µM (inactive)
GI50 [23]: 13 µM (inactive)
GI50 [24]: 3.16 µM (inactive)
GI50 [57]: 37.9 µM (inactive)
GI50 [25]: 13.4 µM (inactive)
GI50 [26]: 15.8 µM (inactive)
GI50 [27]: 16.7 µM (inactive)
GI50 [28]: 14.9 µM (inactive)
GI50 [29]: 19.9 µM (inactive)
GI50 [30]: > 10 µM (inactive)
GI50 [31]: 22 µM (inactive)
GI50 [32]: 24 µM (inactive)
GI50 [33]: 14.5 µM (inactive)
GI50 [34]: 25.7 µM (inactive)
GI50 [35]: 27.7 µM (inactive)
GI50 [58]: 28.2 µM (inactive)
GI50 [36]: 21.5 µM (inactive)
GI50 [37]: 28.4 µM (inactive)
GI50 [38]: 20.4 µM (inactive)
GI50 [39]: 36.4 µM (inactive)
GI50 [40]: > 31.6 µM (inactive)
GI50 [41]: 23.5 µM (inactive)
GI50 [42]: 16.9 µM
GI50 [43]: > 31.5 µM (inactive)
GI50 [44]: 23 µM (inactive)
GI50 [45]: 0.247 µM (active)
GI50 [46]: > 10 µM (inactive)
GI50 [47]: 22 µM (inactive)
GI50 [48]: 28.2 µM (inactive)
GI50 [49]: 13.7 µM (inactive)
GI50 [50]: 18.5 µM (inactive)
GI50 [51]: 16 µM (inactive)
GI50 [52]: > 10 µM (inactive)
GI50 [53]: 19 µM (inactive)
GI50 [54]: 22.2 µM (inactive)
GI50 [55]: 0.27 µM (active)
GI50 [56]: 31.6 µM (inactive)
